Where two headings read alike, the source gives them in different places.
Legend:
[1] = Pharmacokinetic study of standard-dose acute gout regimen 4.8 mg over 6 hours (Example 6)
Procedure: This study was a single center, randomized, double-blind, double-dummy pharmacokinetic and exploratory ECG safety study.
Those randomized to moxifloxacin received 1×400 mg tablet.

[2] = metabolite after single and multiple 0.6 mg colchicine doses
Procedure: Subjects received a light breakfast served 60 minutes following dose administration in the morning and the evening dose was administered 90 minutes after an evening meal on Days 15 through 24 only. […] Study periods were separated by a 14-day washout. Following the single dose and the last dose of the multiple dose regimen (beginning on the mornings of Day 1 and Day 25, respectively), blood samples were collected (6 mL each) from each subject within 1 hour prior to dosing and after dose administration at study hours 0.5, 1, 1.5, 2, 3, 4, 6, 8, 10, 12, and 24 (while confined) and 36, 48, 72, and 96 (on an outpatient basis).

[3] = metabolite after low-dose colchicine 1.8 mg, all subjects
Procedure: This study was a single-center, single-period, open-label pharmacokinetic study conducted in healthy subjects under fasting conditions.
Subjects received 2×0.6 mg tablets initially followed by 1×0.6 mg tablet 1 hour later.

[4] = metabolite after standard-dose colchicine 4.8 mg over 6 hours, N = 8
[5] = standard-dose colchicine 4.8 mg

Structure (SMILES) | 2-DMC plasma concentrations ([1]; metabolite after standard-dose colchicine 4.8 mg, all subjects) | 2-DMC plasma concentrations (all below LOQ) [2] | 2-DMC plasma concentrations [3] | 3-DMC AUC∞, mean [1, 4] | 3-DMC Ke, mean [1, 4] | 3-DMC t1/2, mean [1, 4] | 3-DMC AUC0-t, mean ([1]; metabolite after standard-dose colchicine 4.8 mg over 6 hours, N = 13) | 3-DMC Tmax, mean ([1]; metabolite after standard-dose colchicine 4.8 mg over 6 hours, N = 14) | 3-DMC Cmax, mean ([1]; metabolite after standard-dose colchicine 4.8 mg over 6 hours, N = 15) | Mean 3-DMC AUC0-t as % of mean colchicine AUC0-t [1, 5] | Mean 3-DMC AUC∞ as % of mean colchicine AUC∞ [1, 5] | Mean 3-DMC Cmax as % of mean colchicine Cmax [1, 5]
COc1cc2c(c(OC)c1O)-c1ccc(OC)c(=O)cc1[C@@H](NC(C)=O)CC2 [2-DMC, N-[(7S,12aS)-2-hydroxy-1,3,10-trimethoxy-9-oxo-5,6,7,9-tetrahydrobenzo[a]heptalen-7-yl]-acetamide] | below LOQ | < 0.2 ng/mL | below the LOQ | – | – | – | – | – | – | – | – | –
COc1c(O)cc2c(c1OC)-c1ccc(OC)c(=O)cc1[C@@H](NC(C)=O)CC2 [3-DMC, N-[(7S,12aS)-3-hydroxy-1,2,10-trimethoxy-9-oxo-5,6,7,9-tetrahydrobenzo[a]heptalen-7-yl]-acetamide] | – | – | – | 4.84 ng·h/mL | 0.1418 h⁻¹ | 6.93 h | 2.09 ng·h/mL | 5.06 h | 0.32 ng/mL | ~2% | ~4.1% | approximately 4.7%

Reference: patent US7964647B2 (Mutual Pharmaceutical Company, Inc., priority 2007, dated 2011)
